The structures appear in SMILES notation. pIC50: −log10 of the molar value.

For the first experiment, the target named is T1, full-length human Mineralocorticoid Receptor (MR) (Homo sapiens, UniProt P08235).
T1 construct: host or cells: PathHunter CHO-K1 cells
T1 sequence (P08235 1-984): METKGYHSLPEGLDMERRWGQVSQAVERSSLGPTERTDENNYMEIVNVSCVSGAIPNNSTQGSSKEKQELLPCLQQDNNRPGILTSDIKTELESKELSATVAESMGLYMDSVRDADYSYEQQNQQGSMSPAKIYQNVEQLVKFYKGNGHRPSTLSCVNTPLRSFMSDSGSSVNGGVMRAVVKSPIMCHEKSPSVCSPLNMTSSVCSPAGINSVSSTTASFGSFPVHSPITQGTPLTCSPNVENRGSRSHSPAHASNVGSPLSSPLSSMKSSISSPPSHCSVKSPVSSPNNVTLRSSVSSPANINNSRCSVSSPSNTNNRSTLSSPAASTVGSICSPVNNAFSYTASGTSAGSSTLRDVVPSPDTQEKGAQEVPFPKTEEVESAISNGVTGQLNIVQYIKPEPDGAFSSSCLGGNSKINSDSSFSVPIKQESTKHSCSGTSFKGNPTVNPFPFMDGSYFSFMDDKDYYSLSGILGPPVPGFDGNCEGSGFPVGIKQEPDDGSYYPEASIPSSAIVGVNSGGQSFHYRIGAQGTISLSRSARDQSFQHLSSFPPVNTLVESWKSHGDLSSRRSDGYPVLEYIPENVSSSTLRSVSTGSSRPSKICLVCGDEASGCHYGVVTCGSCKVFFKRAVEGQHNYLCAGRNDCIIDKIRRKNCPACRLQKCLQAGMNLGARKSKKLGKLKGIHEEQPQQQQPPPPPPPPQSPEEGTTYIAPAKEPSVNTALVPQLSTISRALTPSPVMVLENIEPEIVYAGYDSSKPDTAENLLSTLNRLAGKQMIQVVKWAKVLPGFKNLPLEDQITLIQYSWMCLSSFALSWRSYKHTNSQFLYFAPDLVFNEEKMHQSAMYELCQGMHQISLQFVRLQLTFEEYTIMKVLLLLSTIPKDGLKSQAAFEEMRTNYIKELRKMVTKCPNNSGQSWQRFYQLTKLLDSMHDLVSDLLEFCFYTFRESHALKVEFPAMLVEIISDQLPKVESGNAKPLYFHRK
Kind of experiment: human MR NH Pro assay (PathHunter Protein:Protein interaction assay), MR antagonist activity. It is filed as cell-based. The following applies: PathHunter CHO-K1 cells overexpressing human MR; aldosterone 0.3 nM to about 1 nM; 6 hours at 37° C.; luminescence; read-out: IP (rating); IP is the inflection point for a given dose-response titration curve. The source says: The activity of the compounds of the present invention regarding mineralocorticoid receptor antagonism can be evaluated using the following assay.
Assessment of MR Potency in HMR NH Pro Assay
The human MR NH Pro assay is a commercially available PathHunter™ Protein:Protein interaction assay (DiscoveRx; http://www.discoverx.com/nhrs/prod-nhrs.php) that measures the ability of compounds to antagonize full-length human Mineralocorticoid Receptor (MR) binding to a coactivator peptide. PathHunter™ CHO-K1 cells that overexpress human MR (Cat #93-0456C2, Lot No: 09B0913) were cultured in growth media (F12K w/Glutamine and phenol red (Gibco 11765-047) supplemented with 10% HI FBS (Gibco 16000); 0.25 mg/ml Hygromycin in PBS (Invitrogen 10687-010, 50 mg/ml); 100 I.U./mL and 100 μg/mL Pen/Strep (Gibco 15140-122); 0.6 mg/mL Geneticin (Gibco 10131-027).
Compounds were assessed for MR antagonist activity by incubating the cells with a titrating dose of compound in F12K w/Glutamine and phenol red culture media (Invitrogen 11765-047) supplemented with 1% Charcoal/Dextran Treated FBS (Hyclone #SH30068.01) and aldosterone (0.3 nM to about 1 nM) for 6 hours at 37° C. Cells were then treated with DiscoveRx detection reagent for 1 hour at room temperature and read using an Envision luminescence plate reader. % activity was measured relative to cells treated with aldosterone alone and IC50 values were calculated using ADA software.
Stock solution was prepared at 10 μM in DMSO and stored at −20° C. for assay, dilute in assay media to 1.8 or 6 nM (6× of final concentration=about 0.3 nM to about 1.0 nM)
5. Cell line: PathHunter CHO-K1 MR cells Cat #93-0456C2, Lot No: 09B0913, from operation liquid nitrogen stock.
3. The cells concentration was adjusted to 4×10^5 cells/mL.
4. Cells were (25 μL/well) added to the wells of a 384 well plate.
5. The plate was then incubated at 37° C. over night in a humidified incubator with 5% CO2.
6. Test compounds were titrated starting at 4.4 mM, 10-point titration in 1:3 dilution.
7. Aldosterone was diluted in assay media to 1.8 nM or 6 nM from 10 μM stock (final concentration to be about 0.3 nM to about 1.0 nM)
1. 10K exponentially growing cells/well (25 μL) were resuspended in assay media and plated into each well using the Multidrop (Thermo Electron) (use white wall, clear bottom assay plates (Costar #3570) and incubated overnight at 37° C., 5% CO2.
2. 0.25 μL 120× test compound (final DMSO concentration should be <1%) was added to each well n=2, 10 point titrations starting at 36.7 μM final concentration.
3. 5 μL of 6× agonist (final aldosterone concentration should be about 0.3 nM to about 1.0 nM) was added to all wells (using the PlateMate Plus; (ThermoFisher) (except those wells in columns 23 and 24)
4. 5 μL of assay media was added to all wells in column 23 and 24.
5. Cells were then incubated for 6 hrs at 37° C., 5% CO2.
6. 15 μL 3× DiscoveRx detection reagent was then added to each well.
7. Plates were incubated for 1 hour at room temperature in the dark.
8. Plates were read on Envision (PerkinElmer) luminesence plate reader and analyzed using ADA.
For `CCn1nc(C(CCC#N)c2ccc(Cl)cc2F)c2ccccc21` (stereo not shown) [Example 14, 4-(4-chloro-2-fluorophenyl)-4-(1-ethyl-1H-indazol-3-yl)butanenitrile], the pIC50 was 5.22 to 6.30.

In the case of `COC(=O)CCn1nc(C(CCC#N)c2ccc(Cl)cc2F)c2ccccc21` (stereo not shown) [Example 17C, Methyl 3-{3-[1-(4-chloro-2-fluorophenyl)-3-cyanopropyl]-1H-indazol-1-yl}propanoate], the pIC50 was 5.22 to 6.30.

Turning to `CS(=O)(=O)Nc1cccc2c(C(CCC#N)c3ccc(Cl)cc3F)n[nH]c12` (single isomer, unassigned) [Example 2, N-{3-[1-(4-chloro-2-fluorophenyl)-3-cyanopropyl]-1H-indazol-7-yl}methanesulfonamide (Single Enantiomer)], the pIC50 was > 7.00.

On to `CS(=O)(=O)Nc1cccc2c(C(CCCO)c3ccc(Cl)cc3F)n[nH]c12` (stereo not shown) [Example 5, N-{3-[1-(4-chloro-2-fluorophenyl)-4-hydroxybutyl]-1H-indazol-7-yl}methanesulfonamide], for which the pIC50 is 6.30 to 7.00.

In the case of `N#CCCC(c1ccc(Cl)cc1F)c1n[nH]c2c(NS(=O)(=O)C3CC3)cccc12` (stereo not shown) [Example 7, N-{3-[1-(4-chloro-2-fluorophenyl)-3-cyanopropyl]-1H-indazol-7-yl}cyclopropanesulfonamide], the pIC50 is 5.22 to 6.30.

The same experiment, now with this note: enantiomers from chiral SFC OJ-H separation of the racemate.
As to `CS(=O)(=O)Nc1cccc2c(C(CCC#N)c3ccc(Cl)cc3F)n[nH]c12` (single isomer, unassigned) [second peak, N-{3-[1-(4-Chloro-2-fluorophenyl)-3-cyanopropyl]-1H-indazol-7-yl}methanesulfonamide], the “relative MR antagonist activity of the separated enantiomers” value is recorded as “less active”.

In the case of `CS(=O)(=O)Nc1cccc2c(C(CCC#N)c3ccc(Cl)cc3F)n[nH]c12` (single isomer, unassigned) [Example 2, N-{3-[1-(4-chloro-2-fluorophenyl)-3-cyanopropyl]-1H-indazol-7-yl}methanesulfonamide (Single Enantiomer)], the “relative MR antagonist activity of the separated enantiomers” value is “more active”.

(Values after US9487506B2, “Mineralocorticoid receptor antagonists” (Merck Sharp & Dohme Corp., priority 2011, dated 2016).)
